Measured values: patent publication US9512120B2, “Microbicidally active imidazopyridine derivatives” (Syngenta Participations AG, priority 2013, dated 2016)

Tests used:
[1] = tested on: Glomerella lagenarium (Colletotrichum lagenarium); experiment: Glomerella lagenarium (Colletotrichum lagenarium) / liquid culture (anthracnose); type: cell-based; conditions: Colletotrichum orbiculare, PDB, 24° C., 3-4 days after application, read-out: control of Glomerella lagenarium (inhibition of growth, photometric)
Protocol: Glomerella lagenarium (Colletotrichum lagenarium)/Liquid Culture (Anthracnose): Conidia of the fungus from cryogenic storage were directly mixed into nutrient broth (PDB potato dextrose broth). After placing a DMSO solution of test compound into a 96-well microtiter plate at an application rate of 200 ppm, the nutrient broth containing the fungal spores was added. The test plates were incubated at 24° C. and the inhibition of growth is measured photometrically 3-4 days after application.

Pyrenophora teres = Pyrenophora teres / barley / leaf disc preventative (net blotch); type: in vivo; conditions: foliar, barley leaf segments cv Hasso, inoculated two days after application, assessed 5-7 days after application, read-out: control of Pyrenophora teres (disease control compared to untreated)
In short: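 Barley cv Hasso leaf segments on agar sprayed with compound at 200 ppm, inoculated with spores two days later. Kept at 20 °C, 65% RH, 12/12 h light; disease control versus untreated scored 5-7 days after application.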

Gaeumannomyces graminis = Gaeumannomyces graminis / liquid culture (take-all of cereals); type: cell-based; conditions: PDB, 24° C., 4-5 days after application, read-out: control of Gaeumannomyces graminis (inhibition of growth, photometric)
Protocol: (§1) Gaeumannomyces graminis/Liquid Culture (Take-all of Cereals): Mycelial fragments of the fungus from cryogenic storage were directly mixed into nutrient broth (PDB potato dextrose broth). After placing a DMSO solution of test compound into a 96-well microtiter plate at an application rate of 200 ppm, the nutrient broth Cp.33, containing the fungal spores is added. The test plates were incubated at 24° C. and the inhibition of growth was determined photometrically 4-5 days after application.

[2] = tested on: Puccinia recondita f. sp. Tritici; experiment: Puccinia recondita f. sp. tritici / wheat / leaf disc preventative (brown rust); type: in vivo; conditions: foliar, wheat leaf segments cv Kanzler, inoculated 1 day after application, assessed 7-9 days after application, read-out: control of Puccinia recondita f. sp. Tritici (percent disease control compared to untreated)
In short: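 Leaf segments of wheat cv Kanzler on agar were sprayed with formulated compound at 200 ppm and inoculated with spores 1 day later. Incubation was at 19° C, 75% relative humidity and 12/12 h light/dark. Activity was scored 7-9 days after application as percent disease control versus untreated.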

[3] = tested on: Botryotinia fuckeliana (Botrytis cinerea); experiment: Botryotinia fuckeliana (Botrytis cinerea) / liquid culture (gray mould); type: cell-based; conditions: Vogels broth, 24° C., 3-4 days after application, read-out: control of Botryotinia fuckeliana (inhibition of growth, photometric)
In short: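 Botrytis cinerea conidia in Vogels broth were added to test compound applied from DMSO at 200 ppm. Incubation at 24 °C; growth inhibition read photometrically 3-4 days after application.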

[4] = tested on: Mycosphaerella graminicola (Septoria tritici); experiment: Mycosphaerella graminicola (Septoria tritici) / liquid culture (Septoria blotch); type: cell-based; conditions: Zymoseptoria tritici, PDB, 24° C., 4-5 days after application, read-out: control of Mycosphaerella graminicola (inhibition of growth, photometric)
In short: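 Cryo-stored conidia in potato dextrose broth were added to compound in DMSO at 200 ppm in microtiter plates. Plates were incubated at 24 °C and growth inhibition was measured photometrically 4–5 days after application.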

[5] = tested on: Thanatephorus cucumeris (Rhizoctonia solani); experiment: Thanatephorus cucumeris (Rhizoctonia solani) / liquid culture (foot rot, damping-off); type: cell-based; conditions: PDB, 24° C., 3-4 days after application, read-out: control of Thanatephorus cucumeris (inhibition of growth, photometric)
In short: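 Mycelial fragments in potato dextrose broth exposed to test compounds at 200 ppm (from DMSO solution), incubated at 24° C. Growth inhibition read photometrically 3-4 days after application.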

[6] = tested on: Phaeosphaeria nodorum (Septoria nodorum); experiment: Phaeosphaeria nodorum (Septoria nodorum) / wheat / leaf disc preventative (glume blotch); type: in vivo; conditions: Parastagonospora nodorum, foliar, wheat leaf segments cv Kanzler, inoculated 2 days after application, assessed 5-7 days after application, read-out: control of Phaeosphaeria nodorum (percent disease control compared to untreated)
Protocol: Phaeosphaeria nodorum (Septoria nodorum)/Wheat/Leaf Disc Preventative (Glume Blotch): Wheat leaf segments cv Kanzler were placed on agar in a 24-well plate and sprayed with formulated test compound diluted in water at an application rate of 200 ppm. The leaf disks are inoculated with a spore suspension of the fungus 2 days after application. The inoculated test leaf disks are incubated at 20° C. and 75% relative humidity under a light regime of 12/12 h (light/dark) in a climate cabinet and the activity of a compound is assessed as percent disease control compared to untreated when an appropriate level of disease damage appears in untreated check leaf disks (5-7 days after application).

[7] = tested on: Mycosphaerella arachidis (Cercospora arachidicola); experiment: Mycosphaerella arachidis (Cercospora arachidicola) / liquid culture (early leaf spot); type: cell-based; conditions: PDB, 24° C., 4-5 days after application, read-out: control of Mycosphaerella arachidis (inhibition of growth, photometric)
Protocol: Mycosphaerella Arachidis (Cercospora arachidicola)/Liquid Culture (Early Leaf Spot): Conidia of the fungus from cryogenic storage were directly mixed into nutrient broth (PDB potato dextrose broth). After placing a DMSO solution of test compound into a 96-well microtiter plate at an application rate of 200 ppm, the nutrient broth containing the fungal spores was added. The test plates are incubated at 24° C. and the inhibition of growth was determined photometrically 4-5 days after application.

Sclerotinia sclerotiorum = Sclerotinia sclerotiorum liquid culture (cottony rot / white mold); type: cell-based; conditions: PDB, 24° C., 3-4 days after application, read-out: control of Sclerotinia sclerotiorum (inhibition of growth, photometric)
Protocol: Sclerotinia sclerotiorum (Cottony Rot/White Mold): Mycelia fragments of a newly grown liquid culture of the fungus were directly mixed into nutrient broth (PDB potato dextrose broth). After placing a (DMSO) solution of test compound into a microtiter plate (96-well format) the nutrient broth containing the fungal material was added. The test plates are incubated at 24° C. and the inhibition of growth was determined photometrically 3-4 days after application.

[8] = tested on: Monographella nivalis (Microdochium nivale); experiment: Monographella nivalis (Microdochium nivale) / liquid culture (foot rot cereals); type: cell-based; conditions: PDB, 24° C., 4-5 days after application, read-out: control of Monographella nivalis (inhibition of growth, photometric)
Protocol: as §1, with “Monographella nivalis (Microdochium nivale)/Liquid” for “Gaeumannomyces graminis/Liquid”, “(Foot Rot” for “(Take-all of”, “Conidia” for “Mycelial fragments”, “broth” for “broth Cp.33,”, “was” for “is”

SMILES | inhibition at 20 ppm [1] | melting point | pest or weed control at 200 ppm (Pyrenophora teres) | inhibition at 20 ppm (Gaeumannomyces graminis) | pest or weed control at 200 ppm [2] | inhibition at 20 ppm [3] | inhibition at 20 ppm [4] | inhibition at 20 ppm [5] | pest or weed control at 200 ppm [6] | inhibition at 20 ppm [7] | inhibition at 20 ppm (Sclerotinia sclerotiorum) | inhibition at 20 ppm [8]
Nc1nc(C(F)(F)F)nn1-c1nc2cnccc2n1C1CCCCC1 [Compound 3, 2-(1-cyclohexylimidazo[4,5-c]pyridin-2-yl)-5-(trifluoromethyl)-1,2,4-triazol-3-amine] | ≥ 80% | 203 to 206 °C |  |  |  |  |  |  |  |  |  | 
Cc1nc(N)n(-c2nc3cnccc3n2C2CCCCC2)n1 [Compound 5, 2-(1-cyclohexylimidazo[4,5-c]pyridin-2-yl)-5-methyl-1,2,4-triazol-3-amine] |  | 212 to 215 °C | ≥ 80% | ≥ 80% |  |  |  |  |  |  |  | 
CCc1nc(N)n(-c2nc3cnccc3n2C2CCCCC2)n1 [Compound 7, 2-(1-cyclohexylimidazo[4,5-c]pyridin-2-yl)-5-ethyl-1,2,4-triazol-3-amine] | ≥ 80% | 198 to 203 °C |  |  |  |  |  |  |  |  |  | 
Cn1c(-n2ncnc2N)nc2cnccc21 [Compound 14, 2-(1-methylimidazo[4,5-c]pyridin-2-yl)-1,2,4-triazol-3-amine] |  | 240 to 244 °C | ≥ 80% | ≥ 80% |  |  |  |  |  |  |  | 
C=CCn1c(-n2ncnc2N)nc2cnccc21 [Compound 17, 2-(1-prop-2-enylimidazo[4,5-c]pyridin-2-yl)-1,2,4-triazol-3-amine] |  | 215 to 216 °C | ≥ 80% | ≥ 80% | ≥ 80% | ≥ 80% | ≥ 80% | ≥ 80% |  |  |  | 
CCn1c(-n2ncnc2N)nc2cncc(C=Cc3ccccc3)c21 [Compound 21, 2-[1-ethyl-7-(2-phenylethenyl)imidazo[4,5-c]pyridin-2-yl]-1,2,4-triazol-3-amine] |  | 247 to 252 °C |  | ≥ 80% |  |  | ≥ 80% | ≥ 80% |  |  |  | 
CCn1c(-n2ncnc2N)nc2cncc(-c3ccc(F)cc3)c21 [Compound 29, 2-[1-ethyl-7-(4-fluorophenyl)imidazo[4,5-c]pyridin-2-yl]-1,2,4-triazol-3-amine] |  | 275 to 277 °C |  | ≥ 80% |  | ≥ 80% | ≥ 80% | ≥ 80% |  |  |  | 
CCCC=Cc1cncc2nc(-n3ncnc3N)n(CC)c12 [Compound 68, 2-(1-ethyl-7-pent-1-enylimidazo[4,5-c]pyridin-2-yl)-1,2,4-triazol-3-amine] |  |  | ≥ 80% | ≥ 80% | ≥ 80% | ≥ 80% | ≥ 80% | ≥ 80% | ≥ 80% | ≥ 80% | ≥ 80% | 
CCn1c(-n2ncnc2N)nc2cncc(-c3ccccc3C)c21 [Compound 72, 2-[1-ethyl-7-(2-methylphenyl)imidazo[4,5-c]pyridin-2-yl]-1,2,4-triazol-3-amine] |  |  | ≥ 80% |  | ≥ 80% | ≥ 80% | ≥ 80% | ≥ 80% | ≥ 80% | ≥ 80% |  | 
CCn1c(-n2ncnc2N)nc2cncc(-c3ccc(OC)cc3Cl)c21 [Compound 94, 2-[7-(2-chloro-4-methoxyphenyl)-1-ethylimidazo[4,5-c]pyridin-2-yl]-1,2,4-triazol-3-amine] | ≥ 80% |  | ≥ 80% | ≥ 80% | ≥ 80% | ≥ 80% | ≥ 80% | ≥ 80% | ≥ 80% |  | ≥ 80% | ≥ 80%
CCn1c(-n2ncnc2N)nc2cncc(C(=O)C=Cc3ccc(F)cc3)c21 [Compound 108, 1-[2-(5-amino-1,2,4-triazol-1-yl)-1-ethylimidazo[4,5-c]pyridin-7-yl]-3-(4-fluorophenyl)prop-2-en-1-one] |  | 205 to 209 °C | ≥ 80% | ≥ 80% |  |  | ≥ 80% | ≥ 80% |  |  |  | 
CCCn1c(-n2ncnc2N)nc2cncc(Br)c21 [Compound 110, 2-(7-bromo-1-propylimidazo[4,5-c]pyridin-2-yl)-1,2,4-triazol-3-amine] |  | 207 to 208 °C | ≥ 80% |  | ≥ 80% | ≥ 80% | ≥ 80% | ≥ 80% |  |  |  | 
CCn1c(-n2ncnc2N)nc2cncc(C(C)=NOCc3ccccn3)c21 [Compound 142] |  | 138 to 149 °C | ≥ 80% | ≥ 80% |  |  |  | ≥ 80% |  |  |  | 
C=C(Cl)CO/N=C(\C)c1cncc2nc(-n3ncnc3N)n(CC)c12 [Compound 152] | ≥ 80% |  | ≥ 80% |  |  |  | ≥ 80% | ≥ 80% |  | ≥ 80% |  | 
CCn1c(-n2ncnc2N)nc2cncc(/C(C)=N/OC/C=C\Cl)c21 [Compound 171] | ≥ 80% |  | ≥ 80% | ≥ 80% |  | ≥ 80% | ≥ 80% | ≥ 80% | ≥ 80% |  | ≥ 80% | ≥ 80%
Nc1nc(-c2ccccc2)nn1-c1nc2cnccc2n1C1CCCCC1 [Example P1, 2-(1-cyclohexylimidazo[4,5-c]pyridin-2-yl)-5-phenyl-1,2,4-triazol-3-amine] |  | 222 to 225 °C |  |  |  |  |  |  |  |  |  | 
CCn1c(-n2ncnc2N)nc2c(Cl)ncc(-c3ccccc3C)c21 [Example P7, 2-[4-chloro-1-ethyl-7-(o-tolyl)imidazo[4,5-c]pyridin-2-yl]-1,2,4-triazol-3-amine] |  | 274 to 278 °C |  |  |  |  |  |  |  |  |  | 
CCn1c(-n2ncnc2N)nc2cncc(C(C)O)c21 (stereo not drawn) [Example P8, 1-[2-(5-amino-1,2,4-triazol-1-yl)-1-ethyl-imidazo[4,5-c]pyridin-7-yl]ethanol] |  | 220 to 226 °C |  |  |  |  |  |  |  |  |  | 
